From publication PMC6001238, “Iterative Chemical Engineering of Vancomycin Leads to Novel Vancomycin Analogs With a High in Vitro Therapeutic Index” (Frontiers in Microbiology, 2018)
≈ marks a conversion by molar mass, not a printed value.

Columns and labels:
S. aureus VRSA = test: MIC, broth microdilution, vancomycin-resistant S. aureus (VRSA); format: cell-based, Staphylococcus aureus; conditions: for MIC: Staphylococcus aureus VRSA, read-out: MIC; for MIC-fold improvement vs. vancomycin: VRSA, ratio of MIC of vancomycin and MIC of analogue
Summary of the method: (§1)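 Susceptibility was scored by broth microdilution (CLSI). In one instance each vancomycin analog or control antibiotic was tested in the presence of vancomycin, 10 μM final, and ultrapure water plus non-inoculated broth were included as controls.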

[1] = tested on: human cervix carcinoma (HeLa) cells; test: Cytostatic activity, HeLa cell proliferation; format: cell-based; conditions: mean ± SD of three experiments; highest concentration tested 250 µM; 4 days; read-out: Toxicity (IC50) HeLa
Summary of the method: (§2)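 Suspensions (300,000–500,000 cells/mL) combined with equal volumes of diluted compound; 37°C; L1210 2 d / CEM 3 d / HeLa 4 d; counted by Coulter counter; IC50 vs untreated wells.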

MRSA KS2 = test: MIC, broth microdilution, MRSA KS2; format: cell-based, Staphylococcus aureus; conditions: for MIC-fold improvement vs. vancomycin: MRSA KS2, ratio of MIC of vancomycin and MIC of analogue; for MIC: Staphylococcus aureus MRSA KS2, read-out: MIC
Summary of the method: as §1

E. faecalis VSE 1 = test: MIC, broth microdilution, vancomycin-sensitive E. faecalis (VSE 1); format: cell-based, Enterococcus faecalis; conditions: for MIC: Enterococcus faecalis VSE 1 (vancomycin-sensitive), read-out: MIC; for MIC-fold improvement vs. vancomycin: VSE 1, ratio of MIC of vancomycin and MIC of analogue
Summary of the method: as §1

MRSA KS89 = test: MIC, broth microdilution, MRSA KS89; format: cell-based, Staphylococcus aureus; conditions: for MIC-fold improvement vs. vancomycin: MRSA KS8, ratio of MIC of vancomycin and MIC of analogue; for MIC: Staphylococcus aureus MRSA KS8, read-out: MIC
Summary of the method: as §1

E. faecalis VRE 29 = test: MIC, broth microdilution, vancomycin-resistant E. faecalis VRE 29 (VanA); format: cell-based, Enterococcus faecalis; conditions: for MIC: Enterococcus faecalis VRE 29 (vancomycin-resistant), read-out: MIC; for MIC-fold improvement vs. vancomycin: VRE 29, ratio of MIC of vancomycin and MIC of analogue
Summary of the method: as §1

S. aureus VISA/HIP5827 = test: MIC, broth microdilution, vancomycin-intermediate S. aureus VISA HIP5827; format: cell-based, Staphylococcus aureus; conditions: for MIC: Staphylococcus aureus VISA/HIP5827, read-out: MIC; for MIC-fold improvement vs. vancomycin: VISA/HIP5827, ratio of MIC of vancomycin and MIC of analogue
Summary of the method: as §1

E. faecalis VRE 37 = test: MIC, broth microdilution, vancomycin-resistant E. faecalis VRE 37 (VanA); format: cell-based, Enterococcus faecalis; conditions: for MIC: Enterococcus faecalis VRE 37 (vancomycin-resistant), read-out: MIC; for MIC-fold improvement vs. vancomycin: VRE 37, ratio of MIC of vancomycin and MIC of analogue
Summary of the method: as §1

[2] = tested on: L1210, CEM and HeLa cell lines; test: Cytostatic activity, average or summary over L1210, CEM and HeLa; format: cell-based; conditions: average of L1210, CEM and HeLa; read-out: Toxicity (IC50) Average
Summary of the method: as §2

MRSA KS6 = test: MIC, broth microdilution, MRSA KS6; format: cell-based, Staphylococcus aureus; conditions: for MIC-fold improvement vs. vancomycin: MRSA KS6, ratio of MIC of vancomycin and MIC of analogue; for MIC: Staphylococcus aureus MRSA KS6, read-out: MIC
Summary of the method: as §1

[3] = tested on: human T-lymphocyte (CEM) cells; test: Cytostatic activity, CEM cell proliferation; format: cell-based; conditions: mean ± SD of three experiments; highest concentration tested 250 µM; 3 days; read-out: Toxicity (IC50) CEM
Summary of the method: as §2

E. faecalis VRE 53 = test: MIC, broth microdilution, vancomycin-resistant E. faecalis VRE 53 (VanA); format: cell-based, Enterococcus faecalis; conditions: for MIC: Enterococcus faecalis VRE 53 (vancomycin-resistant), read-out: MIC; for MIC-fold improvement vs. vancomycin: VRE 53, ratio of MIC of vancomycin and MIC of analogue
Summary of the method: as §1

[4] = tested on: Murine leukemia (L1210) cells; test: Cytostatic activity, L1210 cell proliferation; format: cell-based; conditions: mean ± SD of three experiments; highest concentration tested 250 µM; 2 days; read-out: Toxicity (IC50) L1210
Summary of the method: as §2

[5] = tested on: S. aureus VSSA (ATCC 6538); test: MIC, broth microdilution, vancomycin-sensitive S. aureus (VSSA/MSSA, ATCC 6538); format: cell-based, Staphylococcus aureus; conditions: for MIC: Staphylococcus aureus VSSA, read-out: MIC; for MIC-fold improvement vs. vancomycin: VSSA, ratio of MIC of vancomycin and MIC of analogue
Summary of the method: as §1

MRSA KS1 = test: MIC, broth microdilution, MRSA KS1; format: cell-based, Staphylococcus aureus; conditions: for MIC-fold improvement vs. vancomycin: MRSA KS1, ratio of MIC of vancomycin and MIC of analogue; for MIC: Staphylococcus aureus MRSA KS1, read-out: MIC
Summary of the method: as §1

E. faecalis VRE 6 = test: MIC, broth microdilution, vancomycin-resistant E. faecalis VRE 6 (VanA); format: cell-based, Enterococcus faecalis; conditions: for MIC: Enterococcus faecalis VRE 6 (vancomycin-resistant), read-out: MIC; for MIC-fold improvement vs. vancomycin: VRE 6, ratio of MIC of vancomycin and MIC of analogue
Summary of the method: as §1

MIC (S. aureus VRSA)	MIC-fold improvement vs. vancomycin (S. aureus VRSA)	MIC-fold improvement vs. vancomycin (MRSA KS2)	MIC (MRSA KS2)	MIC (E. faecalis VSE 1)	MIC-fold improvement vs. vancomycin (E. faecalis VSE 1)	MIC-fold improvement vs. vancomycin (MRSA KS89)	MIC (MRSA KS89)	MIC (E. faecalis VRE 29)	MIC-fold improvement vs. vancomycin (E. faecalis VRE 29)	MIC (S. aureus VISA/HIP5827)	MIC-fold improvement vs. vancomycin (S. aureus VISA/HIP5827)	MIC (E. faecalis VRE 37)	MIC-fold improvement vs. vancomycin (E. faecalis VRE 37)	MIC-fold improvement vs. vancomycin (MRSA KS6)	MIC (MRSA KS6)	MIC (E. faecalis VRE 53)	SMILES	IC50 [1]	IC50 [2]	IC50 [3]	also measured
0.39 µM (≈ 0.677 µg/mL)	256	2	0.39 µM (≈ 0.677 µg/mL)	0.39 µM (≈ 0.677 µg/mL)	4	2	0.39 µM (≈ 0.677 µg/mL)	12.5 µM (≈ 21.7 µg/mL)	32	0.78 µM (≈ 1.35 µg/mL)	8	25 µM (≈ 43.4 µg/mL)	16	1	0.78 µM (≈ 1.35 µg/mL)	12.5 µM (≈ 21.7 µg/mL)	CN[C@H](CC(C)C)C(=O)N[C@H]1C(=O)N[C@@H](CC(N)=O)C(=O)N[C@H]2C(=O)N[C@H]3C(=O)N[C@H](C(=O)N[C@H](C(=O)NCC(=O)Nc4ccc(NS(=O)(=O)c5ccccc5)cc4)c4cc(O)cc(O)c4-c4cc3ccc4O)[C@H](O)c3ccc(c(Cl)c3)Oc3cc2cc(c3O[C@@H]2O[C@H](CO)[C@@H](O)[C@H](O)[C@H]2O[C@H]2C[C@](C)(N)[C@H](O)[C@H](C)O2)Oc2ccc(cc2Cl)[C@H]1O [Vanc-60]	75 ± 29 µM	181 µM	219 ± 44 µM	MIC-fold improvement vs. vancomycin (E. faecalis VRE 53): 32; IC50 [4]: > 250 µM; MIC [5]: 0.39 µM (≈ 0.677 µg/mL); MIC-fold improvement vs. vancomycin [5]: 2; MIC-fold improvement vs. vancomycin (MRSA KS1): 2; MIC (MRSA KS1): 0.39 µM (≈ 0.677 µg/mL); MIC (E. faecalis VRE 6): 12.5 µM (≈ 21.7 µg/mL); MIC-fold improvement vs. vancomycin (E. faecalis VRE 6): 16
25 µM (≈ 40.4 µg/mL)	4	1	0.78 µM (≈ 1.26 µg/mL)	0.78 µM (≈ 1.26 µg/mL)	2	1	0.78 µM (≈ 1.26 µg/mL)	>50 µM	<8	0.78 µM (≈ 1.26 µg/mL)	8	50 µM (≈ 80.9 µg/mL)	8	1	0.78 µM (≈ 1.26 µg/mL)	25 µM (≈ 40.4 µg/mL)	CN[C@H](CC(C)C)C(=O)N[C@H]1C(=O)N[C@@H](CC(N)=O)C(=O)N[C@H]2C(=O)N[C@H]3C(=O)N[C@H](C(=O)N[C@H](C(=O)NCC(=O)Nc4ccc(F)cc4F)c4cc(O)cc(O)c4-c4cc3ccc4O)[C@H](O)c3ccc(c(Cl)c3)Oc3cc2cc(c3O[C@@H]2O[C@H](CO)[C@@H](O)[C@H](O)[C@H]2O[C@H]2C[C@](C)(N)[C@H](O)[C@H](C)O2)Oc2ccc(cc2Cl)[C@H]1O [Vanc-16]	184 ± 60 µM	228 µM	> 250 µM	MIC-fold improvement vs. vancomycin (E. faecalis VRE 53): 16; IC50 [4]: > 250 µM; MIC [5]: 0.78 µM (≈ 1.26 µg/mL); MIC-fold improvement vs. vancomycin [5]: 1; MIC-fold improvement vs. vancomycin (MRSA KS1): 1; MIC (MRSA KS1): 0.78 µM (≈ 1.26 µg/mL); MIC (E. faecalis VRE 6): 12.5 µM (≈ 20.2 µg/mL); MIC-fold improvement vs. vancomycin (E. faecalis VRE 6): 16
1.56 µM (≈ 2.57 µg/mL)	64	4	0.20 µM (≈ 0.329 µg/mL)	0.78 µM (≈ 1.28 µg/mL)	2	2	0.39 µM (≈ 0.642 µg/mL)	6.25 µM (≈ 10.3 µg/mL)	64	0.78 µM (≈ 1.28 µg/mL)	8	6.25 µM (≈ 10.3 µg/mL)	64	4	0.20 µM (≈ 0.329 µg/mL)	6.25 µM (≈ 10.3 µg/mL)	CNC(CC(C)C)C(=O)NC1C(=O)NC(CC(N)=O)C(=O)NC2C(=O)NC3C(=O)NC(C(=O)NC(C(=O)NCC(=O)Nc4ccc(C#CC5CC5)cc4)c4cc(O)cc(O)c4-c4cc3ccc4O)C(O)c3ccc(c(Cl)c3)Oc3cc2cc(c3OC2OC(CO)C(O)C(O)C2OC2CC(C)(N)C(O)C(C)O2)Oc2ccc(cc2Cl)C1O (stereo not drawn) [Vanc-70]	73 ± 10 µM	155 µM	143 ± 113 µM	MIC-fold improvement vs. vancomycin (E. faecalis VRE 53): 64; IC50 [4]: ≥ 250 µM; MIC [5]: 0.78 µM (≈ 1.28 µg/mL); MIC-fold improvement vs. vancomycin [5]: 1; MIC-fold improvement vs. vancomycin (MRSA KS1): 4; MIC (MRSA KS1): 0.20 µM (≈ 0.329 µg/mL); MIC (E. faecalis VRE 6): 6.25 µM (≈ 10.3 µg/mL); MIC-fold improvement vs. vancomycin (E. faecalis VRE 6): 32
